Patent US12435080B2, “sGC stimulators” (Tisento Therapeutics Inc., priority 2016, dated 2025)

Experiments:
sGC = molecular target: T1, sGC (Rattus norvegicus, UniProt P20595); experiment: cGMP neuronal cell-based assay; conditions: rat primary hippocampal neurons; 30 μM DETA-NO; cGMP by LC-MS/MS; normalized to 10 μM Compound Y; compounds in Table IA; read-out: sGC-neuron Abs EC50
T1 construct: Rat primary neurons were isolated from fetuses of 18-day pregnant Sprague-Dawley females; endogenous in cells; host or cells: Primary rat hippocampal neurons (E18 Sprague-Dawley fetuses)
T1 sequence (P20595 1-619): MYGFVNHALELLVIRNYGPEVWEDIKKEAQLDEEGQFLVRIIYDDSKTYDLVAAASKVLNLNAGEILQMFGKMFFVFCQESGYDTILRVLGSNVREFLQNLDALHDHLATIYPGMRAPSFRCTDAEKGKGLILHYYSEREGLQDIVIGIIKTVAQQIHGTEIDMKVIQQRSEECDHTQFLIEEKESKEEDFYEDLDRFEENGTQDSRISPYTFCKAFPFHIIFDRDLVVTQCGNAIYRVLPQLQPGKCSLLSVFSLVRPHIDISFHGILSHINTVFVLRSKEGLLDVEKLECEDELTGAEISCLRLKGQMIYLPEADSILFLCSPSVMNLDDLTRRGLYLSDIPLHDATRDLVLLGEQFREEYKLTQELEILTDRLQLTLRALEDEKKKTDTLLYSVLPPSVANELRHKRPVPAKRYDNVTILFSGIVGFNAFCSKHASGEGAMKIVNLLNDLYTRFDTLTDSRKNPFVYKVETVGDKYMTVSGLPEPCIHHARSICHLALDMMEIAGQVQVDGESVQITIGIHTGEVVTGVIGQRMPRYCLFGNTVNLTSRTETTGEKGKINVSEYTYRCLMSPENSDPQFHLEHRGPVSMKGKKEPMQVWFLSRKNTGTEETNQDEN
Method: Rat primary neurons were isolated from fetuses of 18-day pregnant Sprague-Dawley females. The fetuses were collected in Hanks' balanced salt solution (HBSS) and brains were rapidly removed. The cerebral hippocampi were isolated and mechanically fragmented. Further tissue digestion was performed with 0.25% (wt/vol) trypsin solution in HBSS without Ca2+ and Mg2+ for 15 min at 37° C. After trypsination, cells were washed and resuspended in neurobasal medium supplemented with 0.5 mM L-glutamine, 12.5 uM glutamic acid, 2% B-27 and 100U/mL penicillin, and 100 μg/mL streptomycin. Cells were plated at a density of 4×10^4 cells/well in a poly-D-lysine coated 384-well flat clear-bottom plate (Corning Cat No 354662). Cells were incubated 6-7 days at 37° C. in a humidified chamber with 5% CO2. Media was removed and cells were washed 1× with HBSS containing Ca2+ and Mg2+, and replaced with 40 uL HBSS containing 0.5 mM IBMX, and incubated for 15 minutes at 37° C. 10 uL of a 5× stock of test compounds with diethylenetriamine NONOate (DETA-NO) was added. Final concentration of DETA-NO was 30 μM. Cells were incubated for 20 min at 37° C. Medium was removed, 50 uL of ice-cold 10% acetic acid was added, and incubated for 60 minutes at 4° C. Following centrifugation at 4° C. for 5 minutes at 1000×g to pellet cell debris, the supernatant was aspirated to a clean plate and the samples were analyzed for cGMP content. cGMP concentrations were determined from each sample using LC-MS/MS.
Data were normalized to a high control using the following equation: 100*(Sample−Low Control)/(High Control−Low Control), where the low control is the average of 15 samples treated with 1% DMSO, and the high control is the average of 15 samples treated with 10 μM of the known sGC stimulator Compound Y (depicted in Example 2). Data were fit using a 4-parameter fit (log(agonist) vs. response—variable slope) using GraphPad Prism Software v.5. n=2 for all compounds. The Absolute EC50 was interpolated from the curve fit and is defined as the concentration at which a given compound elicits 50% of the high control response after data normalization. Compounds failing to elicit a minimum response of 50% are reported as >30 μM. For compounds run in duplicate or n higher than 2, the result herein given is the geometric mean of the several results obtained.

[1] = Rat cerebrospinal fluid (CSF) pharmacokinetic properties; assay type: in vivo; conditions: compounds in Table IA; for concentration at 1 h: CSF, male Sprague-Dawley rats, PO 10 mg/kg in PEG400, 1 h post-dosing, read-out: CSF Conc. (nM @ 1 h); for Kp uu at 1 h: male, Sprague-Dawley, CSF and plasma (unbound), unbound CSF/unbound plasma ratio, rats, PO 10 mg/kg
Method: PK in rats was determined following oral dosing. For the oral (PO) experiments, a group of 6 male Sprague-Dawley rats with an indwelling catheter placed in the cisterna magna were used. The PO group was dosed with 3 or 10 mg/kg of a compound formulated as a solution in PEG400. PO doses were administered by oral gavage and delivered to the stomach using a syringe and gavage tube. Following oral dosage administration, the gavage tube was flushed with approximately 0.5 mL of water to ensure complete delivery of the full dose.
Plasma and CSF samples were collected as follows: samples of CSF and blood were collected at 1 hour and 2 hours post-dosing. CSF samples (0.05 mL) were collected through the intracisternal catheter. Blood samples (0.25 mL) were collected through retro-orbital sampling. These samples were kept on ice until processed for plasma. Blood samples were centrifuged at 3200 rpm for 5 minutes at approximately 5° C. within 1 hour of collection. Plasma was directly transferred to a 96-well plate tube (0.125 mL). Plug caps were placed on the tubes and the tubes frozen at approximately −70° C. and stored until analysis.
Plasma was collected and analyzed for the presence of compound.
The compound in question and the internal standard were extracted from plasma and CSF by precipitation. Samples were analyzed using liquid chromatography (LC) with tandem mass spectrometric detection (MS/MS) using electrospray ionization. The standard curve range was from 1 to 1000 ng/mL. Results of the compounds described herein in this assay are illustrated in Tables 4A (for compounds in Table IA) and 4B (for compounds in Table IB) below.
Kp,uu is defined as the concentration ratio of unbound drug in CSF to unbound drug in plasma. Unbound drug in plasma (or free plasma concentration) is calculated by multiplying the total plasma concentration by the unbound fraction as determined by plasma protein binding. The CSF concentration is then divided by the free plasma concentration to determine the Kp,uu. (See e.g., Di et al., J. Med. Chem., 56, 2-12 (2013))

EC50 (sGC) [nM]	concentration at 1 h [1] [nM]	Kp uu at 1 h [1]	Compound
≤ 100	16.6	0.24	FC(F)(F)c1n[nH]c(-c2nn(CCC(F)(F)C(F)(F)F)c3ncccc23)n1 [Compound I-2, 1-(3,3,4,4,4-pentafluorobutyl)-3-(3-(trifluoromethyl)-1H-1,2,4-triazol-5-yl)-1H-pyrazolo[3,4-b]pyridine]
≤ 100	79.5	1.98	FC(F)(F)c1n[nH]c(-c2nn(Cc3cncnc3)c3ncccc23)n1 [Compound I-4, 1-(Pyrimidin-5-ylmethyl)-3-(3-(trifluoromethyl)-1H-1,2,4-triazol-5-yl)-1H-pyrazolo[3,4-b]pyridine]
≤ 100	66.6	3.84	Fc1ccccc1Cc1nn(-c2nc(C(F)(F)F)n[nH]2)c2cccnc12 [Compound I-31, 3-(2-Fluorobenzyl)-1-(3-(trifluoromethyl)-1H-1,2,4-triazol-5-yl)-1H-pyrazolo[4,3-b]pyridine]
≤ 100	26.6	0.36	N#Cc1n[nH]c(-c2nn(Cc3ccccc3F)c3ncccc23)n1 [Compound I-41]
≤ 100	41.6	2.52	Fc1cccc(Cn2nc(-c3nc(C(F)(F)F)n[nH]3)c3cccnc32)c1F [Compound I-48, 1-(2,3-Difluorobenzyl)-3-(3-(trifluoromethyl)-1H-1,2,4-triazol-5-yl)-1H-pyrazolo[3,4-b]pyridine]
≤ 100	172	1.57	FC(F)(F)c1n[nH]c(-c2nn(Cc3ccccc3)c3ncccc23)n1 [Compound I-49, 1-Benzyl-3-(3-(trifluoromethyl)-1H-1,2,4-triazol-5-yl)-1H-pyrazolo[3,4-b]pyridine]
≤ 100	83	0.62	Cc1ncc(Cn2nc(-c3nc(C(F)(F)F)n[nH]3)c3ccccc32)cn1 [Compound I-62, 1-((2-methylpyrimidin-5-yl)methyl)-3-(3-(trifluoromethyl)-1H-1,2,4-triazol-5-yl)-1H-indazole]
≤ 100	13.1	0.54	OCc1n[nH]c(-c2nn(Cc3ccccc3F)c3ncccc23)n1 [Compound I-64, (5-(1-(2-fluorobenzyl)-1H-pyrazolo[3,4-b]pyridin-3-yl)-1H-1,2,4-triazol-3-yl)methanol]
≤ 100	31.5	2.41	Fc1cccc(Cn2nc(-c3nc(Cl)n[nH]3)c3cccnc32)c1F [Compound I-86, 3-(3-Chloro-1H-1,2,4-triazol-5-yl)-1-(2,3-difluorobenzyl)-1H-pyrazolo[3,4-b]pyridine]
≤ 100	21.5	1.54	Fc1ccccc1Cn1nc(-c2nc(C3CC3(F)F)n[nH]2)c2cccnc21 (stereo not drawn) [Compound I-96, 3-(3-(2,2-Difluorocyclopropyl)-1H-1,2,4-triazol-5-yl)-1-(2-fluorobenzyl)-1H-pyrazolo[3,4-b]pyridine]
≤ 100	104	2.81	Fc1ccccc1Cc1nn(-c2nc(C(F)F)n[nH]2)c2cccnc12 [Compound I-101, 1-(3-(Difluoromethyl)-1H-1,2,4-triazol-5-yl)-3-(2-fluorobenzyl)-1H-pyrazolo[4,3-b]pyridine]
≤ 100	17.4	2.2	Fc1cccc(Cc2nn(-c3nc(C(F)(F)F)n[nH]3)c3cccnc23)c1F [Compound I-105, 3-(2,3-Difluorobenzyl)-1-(3-(trifluoromethyl)-1H-1,2,4-triazol-5-yl)-1H-pyrazolo[4,3-b]pyridine]
